According to patent US11702632B2, “Ex vivo method of generating super regulatory T cells for the prevention of autoimmune disease” (University of Massachusetts, priority 2017, dated 2023):

Tested on: humanized mouse model of GvHD
Assay: Ex vivo-treated hPBMCs transferred into NSG mice, assessment of GvHD
Assay type: in vivo
Method: Animal protocols were approved by the Institutional Animal Care and use Committee of the University of Massachusetts Amherst. […] 10×10^6 treated hPBMCs in 150 μl of PBS were injected into mice via the tail vein.
Clinical score was generated by adding grades for five criteria.
IL-2 and IFNγ cytokine levels in plasma collected from NSG mice were determined by using human IFNγ and IL-2 Flex Sets (BD Biosciences). Data were acquired using a Fortessa 5 Laser Flow Cytometer (BD Biosciences) and analyzed using FCAP array software (Soft Flow Inc.).

With `CC(=O)c1c(O)c(C)c(O)c(Cc2c(O)c3c(c(C(=O)/C=C/c4ccccc4)c2O)OC(C)(C)C=C3)c1O` [rottlerin, Rottlerin] the “mice without overt signs of disease” value (hPBMCs pre-treated, no human cells detected on day +70) was “Two of three” and the “toxicity to hPBMCs” value (pre-treated hPBMCs) was “cytotoxic effects on hPBMCs”.
